Measurements from patent publication US12453708B2, “Aminonaphthoquinone compounds for treatment and/or prevention of fibrosis diseases” (CALGENT BIOTECHNOLOGY CO., LTD., priority 2015, dated 2025).

Test system: ET-1-induced CTGF expression in WI-38 cells
Experiment: ET-1-induced CTGF expression in WI-38 cells (Western blot)
Format: cell-based, human
Settings: WI-38 lung fibroblasts, 0.3, 1, 3 or 10 μM for 30 min before and during 2 h ET-1 (10 nM)
Experimental: FIGS. 2 (A) and (B) show the effect of L056 on ET-1-induced CTGF expression in WI-38 cells. WI-38 lung fibroblasts were incubated with different concentrations of L056 (0.3, 1, 3 or 10 μM) for 30 min before and during incubation for 2 h with ET-1 (10 nM). […] (A), Western blot plot; (B), Quantitative assay of Western blot. WI-38 cells, a normal human embryonic lung fibroblast cell line, were obtained from American Type Culture Collection (Manassas, VA). Cells were grown in MEM nutrient mixture, containing 10% FCS, 2 mM L-glutamine, 0.1 mM NEAA, 1 mM sodium pyruvate, 50 U/ml penicillin G, and 100 µg/ml streptomycin, in a humidified 37° C. incubator with 5% CO2 Cells were used between passages 18 and 30 for all experiments. After reaching confluence, cells were seeded onto 6-cm dishes for immunoblotting. Western blot analyses were performed as described previously (Chen B C, Chang Y S, Kang J C, Hsu M J, Sheu J R, Chen T L, et al. Peptidoglycan induces nuclear factor-kappaB activation and cyclooxygenase-2 expression via Ras, Raf-1, and ERK in RAW 264.7 macrophages. J Biol Chem 2004; 279:20889-97). Briefly, WI-38 lung fibroblasts were cultured in 6-cm dishes. […] The immunoreactivity was detected using enhanced chemiluminescence (ECL) following the manufacturer's instructions. Quantitative data were obtained using a computing densitometer with scientific imaging systems (Kodak, Rochester, NY). […]

## O=C(Nc1ccncc1)c1ccc(CNC2=C(Cl)C(=O)c3ccccc3C2=O)cc1 [Example L056, 4-(((3-chloro-1,4-dioxo-1,4-dihydronaphthalen-2-yl)amino)methyl)-N-(pyridin-4-yl)benzamide]
  ET-1-induced CTGF production/expression: significantly inhibited
Listed as MPTOL0560
  ET-1-induced CTGF production/expression: inhibited
